According to ChEMBL document CHEMBL5550160, “Leveraging a rationally designed veliparib-based anilide eliciting anti-leukemic effects for the design of pH-responsive polymer nanoformulation” (Eur J Med Chem, 2024):
The source made the active and inactive calls. The calls are words filed in the database; no cut-off is given here.

Legend:
[1] = biological target: Histone deacetylase 4 (Homo sapiens) (UniProt P56524); assay: Inhibition of HDAC4 (unknown origin) assessed as residual activity at 1.1 x 10^-6M (reference value: 98.90%); conditions: dose 1.1 10^-6M
[2] = biological target: Histone deacetylase 5 (Homo sapiens) (UniProt Q9UQL6); assay: Inhibition of HDAC5 (unknown origin) assessed as residual activity at 1.52 x 10^-9M (reference value: 100%); conditions: dose 1.52 10^-9M
HL-60 [3] = assay: Induction of cell cycle arrest in G0/G1 phase in human HL-60 cells assessed as downregulation of cyclin D1 protein expression at 0.5 to 1 times IC50 by Western blot analysis; type: functional, cell-based
[4] = biological target: Histone deacetylase 9 (Homo sapiens) (UniProt Q9UKV0); assay: Inhibition of HDAC9 (unknown origin) assessed as residual activity at 1.1 x 10^-6M (reference value: 97.55%); conditions: dose 1.1 10^-6M
HL-60 [5] = assay: Downregulation of HDAC2 protein expression in human HL-60 cells by Western blot analysis; type: functional, cell-based; conditions: dose 0.2-5 µM
[6] = biological target: T1, Histone deacetylase 7 (Homo sapiens) (UniProt Q8WUI4); assay: Inhibition of HDAC7 (unknown origin) assessed as residual activity at 1.52 x 10^-9M (reference value: 102.66%); conditions: dose 1.52 10^-9M
T1 sequence (whole entry): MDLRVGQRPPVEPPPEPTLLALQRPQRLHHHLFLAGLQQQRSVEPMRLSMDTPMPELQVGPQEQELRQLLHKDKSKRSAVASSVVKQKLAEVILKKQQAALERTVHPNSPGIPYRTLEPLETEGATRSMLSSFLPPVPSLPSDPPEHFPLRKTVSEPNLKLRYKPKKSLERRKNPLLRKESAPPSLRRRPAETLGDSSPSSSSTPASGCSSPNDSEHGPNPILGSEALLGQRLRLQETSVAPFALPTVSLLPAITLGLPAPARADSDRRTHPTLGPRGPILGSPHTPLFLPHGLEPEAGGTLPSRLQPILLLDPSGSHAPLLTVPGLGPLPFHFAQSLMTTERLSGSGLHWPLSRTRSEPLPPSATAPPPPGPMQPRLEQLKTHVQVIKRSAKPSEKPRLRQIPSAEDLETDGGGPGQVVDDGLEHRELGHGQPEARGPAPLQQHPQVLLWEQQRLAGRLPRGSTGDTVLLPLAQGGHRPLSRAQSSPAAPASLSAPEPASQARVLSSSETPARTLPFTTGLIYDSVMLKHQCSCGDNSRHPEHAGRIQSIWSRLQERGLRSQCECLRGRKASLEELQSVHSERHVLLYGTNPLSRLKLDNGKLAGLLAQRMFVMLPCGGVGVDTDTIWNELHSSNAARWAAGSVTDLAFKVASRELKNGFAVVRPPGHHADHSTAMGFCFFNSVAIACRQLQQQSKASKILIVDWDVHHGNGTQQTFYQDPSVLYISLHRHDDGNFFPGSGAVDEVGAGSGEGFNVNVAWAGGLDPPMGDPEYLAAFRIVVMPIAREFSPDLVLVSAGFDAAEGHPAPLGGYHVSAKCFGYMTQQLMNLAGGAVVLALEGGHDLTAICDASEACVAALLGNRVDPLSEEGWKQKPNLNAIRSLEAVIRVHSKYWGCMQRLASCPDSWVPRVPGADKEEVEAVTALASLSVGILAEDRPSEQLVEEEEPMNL

[7] = biological target: T2, Protein deacetylase HDAC6 (Homo sapiens) (UniProt Q9UBN7); assay: Inhibition of HDAC6 (unknown origin) using p53 residues 379 to 382 [RHKK(Ac)] as fluorogenic substrate assessed as residual activity at 1.23 x 10^-7M (reference value: 101.06%); conditions: dose 1.23 10^-7M
T2 sequence (whole entry): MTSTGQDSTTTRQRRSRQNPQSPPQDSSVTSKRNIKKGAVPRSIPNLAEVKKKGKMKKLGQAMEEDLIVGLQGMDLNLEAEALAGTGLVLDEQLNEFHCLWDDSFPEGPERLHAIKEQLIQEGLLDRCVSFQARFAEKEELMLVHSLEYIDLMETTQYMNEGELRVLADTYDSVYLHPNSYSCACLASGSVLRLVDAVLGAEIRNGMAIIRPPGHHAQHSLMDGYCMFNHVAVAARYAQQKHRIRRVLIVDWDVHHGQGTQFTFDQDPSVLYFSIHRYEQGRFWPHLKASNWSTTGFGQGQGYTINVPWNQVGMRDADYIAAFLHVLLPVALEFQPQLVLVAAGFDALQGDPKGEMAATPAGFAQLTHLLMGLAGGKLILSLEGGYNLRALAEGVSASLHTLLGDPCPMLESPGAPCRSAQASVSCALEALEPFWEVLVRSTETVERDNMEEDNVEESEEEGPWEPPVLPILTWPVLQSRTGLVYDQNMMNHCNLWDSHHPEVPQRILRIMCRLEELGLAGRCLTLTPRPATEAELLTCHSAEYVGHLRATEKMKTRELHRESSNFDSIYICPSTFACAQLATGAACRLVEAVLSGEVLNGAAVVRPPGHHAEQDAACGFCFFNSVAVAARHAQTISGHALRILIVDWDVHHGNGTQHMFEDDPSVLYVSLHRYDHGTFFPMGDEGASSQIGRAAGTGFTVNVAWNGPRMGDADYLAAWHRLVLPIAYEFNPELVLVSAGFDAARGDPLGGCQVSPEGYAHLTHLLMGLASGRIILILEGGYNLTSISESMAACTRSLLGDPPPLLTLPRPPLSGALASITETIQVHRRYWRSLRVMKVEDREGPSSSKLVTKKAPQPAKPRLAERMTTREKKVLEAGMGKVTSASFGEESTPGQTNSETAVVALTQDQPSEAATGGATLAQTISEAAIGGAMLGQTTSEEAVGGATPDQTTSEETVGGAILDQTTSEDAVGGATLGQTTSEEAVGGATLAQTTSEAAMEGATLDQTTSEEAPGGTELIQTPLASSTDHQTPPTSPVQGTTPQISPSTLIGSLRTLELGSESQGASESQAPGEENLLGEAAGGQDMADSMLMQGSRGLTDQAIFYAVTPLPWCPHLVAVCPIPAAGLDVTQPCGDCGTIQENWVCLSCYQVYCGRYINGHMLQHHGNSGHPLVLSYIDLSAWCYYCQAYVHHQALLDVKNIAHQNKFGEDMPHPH

HL-60 [8] = assay: Induction of cell cycle arrest in G0/G1 phase in human HL-60 cells assessed as downregulation of p-AKT protein expression at 0.5 to 1 times IC50 by Western blot analysis; type: functional, cell-based
HL-60 [9] = assay: Induction of apoptosis in human HL-60 cells assessed as DNA fragmentation at 0.5 to 1 times IC50 by DAPI staining based microscopic analysis; type: functional, cell-based
Histone deacetylase 2 = Histone deacetylase 2 (Homo sapiens, UniProt Q92769); assay: Inhibition of HDAC2 (unknown origin) assessed as residual activity at 5.08 x 10^-10M (reference value: 99.81%); conditions: dose 5.08 10^-10M
[10] = biological target: Histone deacetylase 9 (Homo sapiens) (UniProt Q9UKV0); assay: Inhibition of HDAC9 (unknown origin) assessed as residual activity at 1.37 x 10^-8M (reference value: 97.55%); conditions: dose 1.37 10^-8M

Sequence of Histone deacetylase 9 (Homo sapiens) (Q9UKV0 whole entry): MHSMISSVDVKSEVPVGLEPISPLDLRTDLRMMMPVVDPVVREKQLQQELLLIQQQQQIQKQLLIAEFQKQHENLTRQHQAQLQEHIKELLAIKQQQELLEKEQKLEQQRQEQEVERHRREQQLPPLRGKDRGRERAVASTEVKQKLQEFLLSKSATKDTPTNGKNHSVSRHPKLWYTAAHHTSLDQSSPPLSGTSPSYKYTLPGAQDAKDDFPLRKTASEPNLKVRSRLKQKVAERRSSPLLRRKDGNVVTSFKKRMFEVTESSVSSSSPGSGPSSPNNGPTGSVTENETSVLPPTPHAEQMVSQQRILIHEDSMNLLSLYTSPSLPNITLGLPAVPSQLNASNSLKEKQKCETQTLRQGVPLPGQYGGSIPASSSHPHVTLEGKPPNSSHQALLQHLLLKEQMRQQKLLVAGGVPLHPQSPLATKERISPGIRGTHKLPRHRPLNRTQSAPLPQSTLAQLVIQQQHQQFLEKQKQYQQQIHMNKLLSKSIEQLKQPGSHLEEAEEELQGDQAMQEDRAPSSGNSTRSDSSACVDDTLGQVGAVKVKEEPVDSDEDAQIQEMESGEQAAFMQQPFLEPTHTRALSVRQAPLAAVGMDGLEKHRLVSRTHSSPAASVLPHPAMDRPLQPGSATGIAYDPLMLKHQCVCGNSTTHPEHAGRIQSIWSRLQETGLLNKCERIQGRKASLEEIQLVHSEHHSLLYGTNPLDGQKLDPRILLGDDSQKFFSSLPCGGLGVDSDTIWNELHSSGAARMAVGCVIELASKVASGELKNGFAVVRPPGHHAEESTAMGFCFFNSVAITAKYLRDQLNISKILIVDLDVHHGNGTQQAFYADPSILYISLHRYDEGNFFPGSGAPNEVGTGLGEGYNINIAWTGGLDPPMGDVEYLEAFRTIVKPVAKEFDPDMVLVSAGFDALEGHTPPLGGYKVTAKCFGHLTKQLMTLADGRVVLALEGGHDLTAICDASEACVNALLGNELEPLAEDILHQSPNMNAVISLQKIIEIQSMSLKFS
Sequence of Histone deacetylase 4 (Homo sapiens) (P56524 whole entry): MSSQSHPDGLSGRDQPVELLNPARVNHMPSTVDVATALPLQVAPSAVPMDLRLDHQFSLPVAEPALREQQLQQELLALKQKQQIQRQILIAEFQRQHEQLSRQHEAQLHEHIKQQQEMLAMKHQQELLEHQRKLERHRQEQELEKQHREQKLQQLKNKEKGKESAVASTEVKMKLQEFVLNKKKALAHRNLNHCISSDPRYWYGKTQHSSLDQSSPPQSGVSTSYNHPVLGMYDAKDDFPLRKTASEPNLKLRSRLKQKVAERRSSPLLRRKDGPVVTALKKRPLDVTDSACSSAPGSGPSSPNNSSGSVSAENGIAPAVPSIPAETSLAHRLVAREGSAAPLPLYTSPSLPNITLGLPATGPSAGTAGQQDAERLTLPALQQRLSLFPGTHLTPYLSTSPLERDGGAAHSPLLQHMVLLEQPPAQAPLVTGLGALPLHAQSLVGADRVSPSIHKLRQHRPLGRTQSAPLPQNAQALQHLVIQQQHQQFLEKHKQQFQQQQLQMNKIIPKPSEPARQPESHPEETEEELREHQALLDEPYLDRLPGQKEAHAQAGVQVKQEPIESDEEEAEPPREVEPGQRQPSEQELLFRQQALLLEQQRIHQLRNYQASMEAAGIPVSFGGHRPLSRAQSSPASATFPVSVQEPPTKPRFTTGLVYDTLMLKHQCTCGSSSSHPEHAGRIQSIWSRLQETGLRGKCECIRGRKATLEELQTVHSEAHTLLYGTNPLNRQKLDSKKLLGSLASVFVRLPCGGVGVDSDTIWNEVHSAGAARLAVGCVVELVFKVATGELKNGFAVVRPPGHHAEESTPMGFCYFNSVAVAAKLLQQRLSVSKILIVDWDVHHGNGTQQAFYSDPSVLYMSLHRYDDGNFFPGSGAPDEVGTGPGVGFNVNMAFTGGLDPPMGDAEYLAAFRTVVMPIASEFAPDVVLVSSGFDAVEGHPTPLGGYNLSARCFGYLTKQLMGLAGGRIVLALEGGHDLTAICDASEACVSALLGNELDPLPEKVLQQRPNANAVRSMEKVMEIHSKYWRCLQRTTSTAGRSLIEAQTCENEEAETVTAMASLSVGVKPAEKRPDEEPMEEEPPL
Sequence of Histone deacetylase 2 (Q92769 whole entry): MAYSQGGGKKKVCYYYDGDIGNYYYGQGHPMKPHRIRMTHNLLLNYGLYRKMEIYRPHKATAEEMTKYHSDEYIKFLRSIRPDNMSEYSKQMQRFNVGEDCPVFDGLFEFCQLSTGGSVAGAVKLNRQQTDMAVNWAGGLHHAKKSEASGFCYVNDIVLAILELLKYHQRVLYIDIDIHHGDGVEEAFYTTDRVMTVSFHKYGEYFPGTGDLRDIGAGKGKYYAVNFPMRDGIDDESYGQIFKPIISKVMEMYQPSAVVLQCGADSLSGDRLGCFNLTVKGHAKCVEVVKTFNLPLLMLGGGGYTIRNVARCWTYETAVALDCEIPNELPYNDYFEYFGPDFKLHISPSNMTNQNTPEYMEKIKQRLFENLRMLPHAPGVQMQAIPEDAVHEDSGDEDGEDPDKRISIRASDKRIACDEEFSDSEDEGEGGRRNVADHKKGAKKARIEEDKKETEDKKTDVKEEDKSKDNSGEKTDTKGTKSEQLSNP
Sequence of Histone deacetylase 5 (Homo sapiens) (Q9UQL6 whole entry): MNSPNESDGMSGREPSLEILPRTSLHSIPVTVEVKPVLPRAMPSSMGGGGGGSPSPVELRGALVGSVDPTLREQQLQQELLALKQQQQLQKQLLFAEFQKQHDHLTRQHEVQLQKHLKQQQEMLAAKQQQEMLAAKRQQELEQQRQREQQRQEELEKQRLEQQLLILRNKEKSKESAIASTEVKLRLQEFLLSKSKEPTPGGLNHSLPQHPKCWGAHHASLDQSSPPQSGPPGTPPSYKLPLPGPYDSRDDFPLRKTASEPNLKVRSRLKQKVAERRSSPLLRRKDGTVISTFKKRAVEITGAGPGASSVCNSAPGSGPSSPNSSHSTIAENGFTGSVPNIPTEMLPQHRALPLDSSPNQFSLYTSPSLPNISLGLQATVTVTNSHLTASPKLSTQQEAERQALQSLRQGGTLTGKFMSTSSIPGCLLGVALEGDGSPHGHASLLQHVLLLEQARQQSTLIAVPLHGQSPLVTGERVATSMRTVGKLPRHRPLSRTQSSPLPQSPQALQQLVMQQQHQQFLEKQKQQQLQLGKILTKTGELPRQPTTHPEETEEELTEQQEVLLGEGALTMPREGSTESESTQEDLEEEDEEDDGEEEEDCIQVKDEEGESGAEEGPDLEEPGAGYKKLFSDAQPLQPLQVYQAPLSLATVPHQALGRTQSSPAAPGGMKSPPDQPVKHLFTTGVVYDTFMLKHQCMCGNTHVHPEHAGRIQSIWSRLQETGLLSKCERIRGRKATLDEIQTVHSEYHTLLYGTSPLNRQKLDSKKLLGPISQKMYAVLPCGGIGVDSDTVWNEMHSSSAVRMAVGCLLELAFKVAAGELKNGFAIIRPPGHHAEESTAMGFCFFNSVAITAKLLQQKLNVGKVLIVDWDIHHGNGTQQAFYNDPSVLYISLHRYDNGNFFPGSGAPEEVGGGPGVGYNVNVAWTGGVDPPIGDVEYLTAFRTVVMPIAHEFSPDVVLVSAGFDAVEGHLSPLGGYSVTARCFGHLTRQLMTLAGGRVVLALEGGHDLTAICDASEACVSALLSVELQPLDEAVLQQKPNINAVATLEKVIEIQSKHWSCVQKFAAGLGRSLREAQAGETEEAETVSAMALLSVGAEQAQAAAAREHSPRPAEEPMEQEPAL

Activity [1]: 76.5%
Activity [2]: 80.1%
Activity [4]: 93%
Activity [6]: 103%
Activity [7]: 91.9%
Activity (Histone deacetylase 2): 98.2%
Activity [10]: 84.9%
SMILES: NC(=O)c1cccc2[nH]c(-c3ccc(NCc4ccc(C(=O)Nc5ccccc5N)cc4)cc3)nc12
Activity (HL-60 [3]): Active
Activity (HL-60 [5]): Dose-Dependent Effect
Activity (HL-60 [8]): Active
Activity (HL-60 [9]): inactive
